Reference: ChEMBL document CHEMBL3259724, “Design, syntheses, and characterization of piperazine based chemokine receptor CCR5 antagonists as anti prostate cancer agents” (Bioorg Med Chem Lett, 2014)

Key:
[1] = Antiproliferative activity against human M12 cells after 72 hrs by WST-1 assay; assay type: functional, cell-based; conditions: M12, 72 h
[2] = Cytotoxicity against mouse NIH/3T3 cells after 48 hrs by neutral red uptake assay; assay type: cell-based, NIH3T3; conditions: read-out: TC50
PC-3 = assay: Antiproliferative activity against human PC3 cells after 72 hrs by WST-1 assay; assay type: functional, cell-based; conditions: PC-3, 72 h
[3] = biological target: C-C chemokine receptor type 5 (Homo sapiens, UniProt P51681); assay: Antagonist activity at CCR5 (unknown origin) expressed in human MOLT4 cells assessed as inhibition of RANTES-stimulated calcium mobilization treated for 15 mins prior to RANTES addition by spectrophotometric analysis; assay type: functional, cell-based, MOLT-4
Sequence of C-C chemokine receptor type 5 (P51681 whole entry): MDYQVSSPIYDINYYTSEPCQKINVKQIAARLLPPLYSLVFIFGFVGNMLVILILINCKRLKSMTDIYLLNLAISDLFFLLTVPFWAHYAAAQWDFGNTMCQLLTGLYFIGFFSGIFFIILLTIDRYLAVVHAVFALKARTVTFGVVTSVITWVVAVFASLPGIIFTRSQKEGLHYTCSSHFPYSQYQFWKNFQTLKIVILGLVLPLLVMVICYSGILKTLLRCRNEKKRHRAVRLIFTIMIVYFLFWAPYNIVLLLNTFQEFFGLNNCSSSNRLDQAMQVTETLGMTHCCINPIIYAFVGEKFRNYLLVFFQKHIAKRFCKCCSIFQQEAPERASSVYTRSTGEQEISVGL

## CCN(CC)c1ccc(CN2CCN(c3ccc(OC(C)C)c(NC(=O)c4cnccn4)c3)CC2)cc1
[1]
  IC50: 11.4 µM
[2]
  CC50 at 48 h: 31.9 µM
PC-3
  IC50: 6.5 µM

## CC(C)Oc1ccc(N2CCN(Cc3ccc([N+](=O)[O-])cc3)CC2)cc1NC(=O)c1cnccn1
[1]
  IC50: 78.7 µM
[2]
  CC50 at 48 h: 29.3 µM
PC-3
  IC50: 49.1 µM

## CC(C)Oc1ccc(N2CCN(Cc3ccccc3)CC2)cc1NC(=O)c1cnccn1
[1]
  IC50: 29.9 µM
[2]
  CC50 at 48 h: 46.6 µM
PC-3
  IC50: 67 µM

## CC(C)Oc1ccc(N2CCN(Cc3ccccc3[N+](=O)[O-])CC2)cc1NC(=O)c1cnccn1
[1]
  IC50: 183 µM
[2]
  CC50 at 48 h: > 50 µM
PC-3
  IC50: 62.9 µM
[3]
  IC50: 16.8 µM

## CC(C)Oc1ccc(N2CCN(Cc3ccc(Cl)cc3)CC2)cc1NC(=O)c1cnccn1
[1]
  IC50: 26.3 µM
[2]
  CC50 at 48 h: 1.6 µM
PC-3
  IC50: 56.1 µM

## CC(C)Oc1ccc(N2CCN(Cc3ccc(Br)cc3)CC2)cc1NC(=O)c1cnccn1
[1]
  IC50: 48.8 µM
[2]
  CC50 at 48 h: > 50 µM
PC-3
  IC50: 31.5 µM

## COC(=O)c1ccc(CN2CCN(c3ccc(OC(C)C)c(NC(=O)c4cnccn4)c3)CC2)cc1
[1]
  IC50: 73.7 µM
PC-3
  IC50: 91.5 µM

## CC(C)Oc1ccc(N2CCN(Cc3ccc(C(=O)O)cc3)CC2)cc1NC(=O)c1cnccn1
[1]
  IC50: 129 µM
PC-3
  IC50: 74 µM

## CC(C)Oc1ccc(N2CCN(Cc3ccc(S(C)(=O)=O)cc3)CC2)cc1NC(=O)c1cnccn1
[1]
  IC50: 141 µM
PC-3
  IC50: > 100 µM

## Cc1ccc(CN2CCN(c3ccc(OC(C)C)c(NC(=O)c4cnccn4)c3)CC2)cc1
[1]
  IC50: 15.8 µM
PC-3
  IC50: 19.7 µM

## CC(C)Oc1ccc(N2CCN(Cc3ccc(N)cc3)CC2)cc1NC(=O)c1cnccn1
[1]
  IC50: 19.7 µM
[2]
  CC50 at 48 h: 10.7 µM
PC-3
  IC50: 20.1 µM

## CSc1ccc(CN2CCN(c3ccc(OC(C)C)c(NC(=O)c4cnccn4)c3)CC2)cc1
[1]
  IC50: > 100 µM
PC-3
  IC50: 78 µM

## CC(=O)Nc1ccc(CN2CCN(c3ccc(OC(C)C)c(NC(=O)c4cnccn4)c3)CC2)cc1
[1]
  IC50: 39 µM
[2]
  CC50 at 48 h: 7.8 µM
PC-3
  IC50: 24.3 µM

## CC(C)Oc1ccc(N2CCN(Cc3ccc(N(C)C)cc3)CC2)cc1NC(=O)c1cnccn1
[1]
  IC50: 65.9 µM
[2]
  CC50 at 48 h: > 50 µM
PC-3
  IC50: 71.2 µM

## Cc1ccc(-c2ccc3c(c2)C=C(C(=O)Nc2ccc(C[N+](C)(C)C4CCOCC4)cc2)CCC3)cc1
[1]
  IC50: 20.4 µM
PC-3
  IC50: 37.9 µM
